Columns and labels:
Test in all cases: Inhibition Assay
Coagulation factor VIII [1] = biological target: T1, Coagulation factor VIII (Homo sapiens, UniProt P00451); settings: 37 °C
Source text: Inhibition of factor VIII C2 domain.

Coagulation factor VIII [2] = biological target: T1, Coagulation factor VIII; settings: pH 7.9
Source text: Inhibition of factor X activation assay. A commercially available chromogenic assay that measures the rate of factor X activation to measure inhibiton of the cofactor function of factor VIII.

Coagulation factor VIII [3] = biological target: T1, Coagulation factor VIII; settings: pH 8
Experimental: Inhibition of factor VIII ELISA. The interaction between factor VIII and PS was measured by using an enzyme-linked immunoadsorbent assay (ELISA).

T1 sequence (P00451 20-759 limits assumed): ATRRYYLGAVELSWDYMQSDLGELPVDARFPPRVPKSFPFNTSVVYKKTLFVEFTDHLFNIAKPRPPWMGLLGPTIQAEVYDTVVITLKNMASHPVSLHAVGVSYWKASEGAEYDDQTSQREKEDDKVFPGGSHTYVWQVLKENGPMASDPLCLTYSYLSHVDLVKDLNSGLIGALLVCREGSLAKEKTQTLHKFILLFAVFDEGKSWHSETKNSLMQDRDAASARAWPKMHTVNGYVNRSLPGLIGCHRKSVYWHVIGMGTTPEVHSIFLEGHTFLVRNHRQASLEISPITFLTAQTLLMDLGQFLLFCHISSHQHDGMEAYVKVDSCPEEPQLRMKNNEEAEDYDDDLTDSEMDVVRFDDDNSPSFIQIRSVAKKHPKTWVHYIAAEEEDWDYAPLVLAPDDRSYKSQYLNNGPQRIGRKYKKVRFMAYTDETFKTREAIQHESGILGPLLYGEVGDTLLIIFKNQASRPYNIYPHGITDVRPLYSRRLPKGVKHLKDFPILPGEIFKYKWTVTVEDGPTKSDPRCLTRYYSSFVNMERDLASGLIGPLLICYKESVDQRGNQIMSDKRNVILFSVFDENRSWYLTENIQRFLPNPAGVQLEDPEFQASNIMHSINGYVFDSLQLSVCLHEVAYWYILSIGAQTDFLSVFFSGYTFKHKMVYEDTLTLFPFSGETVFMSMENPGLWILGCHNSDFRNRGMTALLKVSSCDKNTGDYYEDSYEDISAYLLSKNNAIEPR
T1 sequence (P00451 1668-2351 limits assumed): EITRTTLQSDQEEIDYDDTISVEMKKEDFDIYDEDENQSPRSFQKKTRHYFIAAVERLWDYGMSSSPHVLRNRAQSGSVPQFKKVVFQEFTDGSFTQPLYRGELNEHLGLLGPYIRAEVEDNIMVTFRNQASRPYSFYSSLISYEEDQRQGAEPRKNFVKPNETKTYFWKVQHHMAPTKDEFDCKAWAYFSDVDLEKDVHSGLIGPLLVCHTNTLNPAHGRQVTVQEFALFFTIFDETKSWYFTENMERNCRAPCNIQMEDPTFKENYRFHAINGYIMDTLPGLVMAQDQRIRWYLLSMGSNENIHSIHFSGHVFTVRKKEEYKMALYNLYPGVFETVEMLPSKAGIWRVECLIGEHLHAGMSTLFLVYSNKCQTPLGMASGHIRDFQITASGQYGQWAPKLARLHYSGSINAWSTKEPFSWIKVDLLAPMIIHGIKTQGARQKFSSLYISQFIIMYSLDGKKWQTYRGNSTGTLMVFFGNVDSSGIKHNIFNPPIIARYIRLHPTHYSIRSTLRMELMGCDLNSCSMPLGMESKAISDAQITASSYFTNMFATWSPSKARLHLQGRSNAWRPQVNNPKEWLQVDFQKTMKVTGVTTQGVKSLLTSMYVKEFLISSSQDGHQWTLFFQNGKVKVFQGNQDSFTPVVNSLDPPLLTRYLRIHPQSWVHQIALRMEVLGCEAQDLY

Structure (SMILES)	IC50 (Coagulation factor VIII [1]) [µM]	IC50 (Coagulation factor VIII [2]) [µM]	IC50 (Coagulation factor VIII [3]) [µM]
CCOc1ccc(-c2cc(C)n3nc(C(N)=O)cc3n2)cc1	26.8		
CC(C=Cc1ccco1)=NCCCCNC(=O)C=Cc1ccco1 [5247489]	56.1		
CCOC(=O)c1c(NC(=S)NC(=O)c2ccccc2)sc2c1CCC(C)C2 (stereo unspecified) [5523453]	27.7		
O=C1/C(=C/c2ccc(Br)o2)SC(=S)N1c1cccc(C(F)(F)F)c1 [5737176]	6.66	8.5	9.25
O=C1/C(=C/c2ccc(I)o2)SC(=S)N1c1cccc(C(F)(F)F)c1 [5738875]	5.65	5	6.83
O=C1/C(=C/c2ccc(Br)o2)SC(=S)N1c1ccc([N+](=O)[O-])cc1 [5739991]	4.63	11.7	10.4
N=C(NN=Cc1ccc(F)cc1)NN=Cc1ccc(F)cc1 [5924029]	24.5		
COc1cc(/C=C2/SC(=S)N(CC(=O)Nc3ccccn3)C2=O)cc(OC)c1OC [6126765]	11.9		
CCOc1ccc(Cl)cc1/C=C1/SC(=S)N(CC)C1=O [6168356]	49.6		
O=C1NC(=S)NC(=O)C1=Cc1ccc(-c2cc(Cl)c([N+](=O)[O-])cc2Cl)o1 [6190013]	8.48	7.5	2.11
COc1cc(C=Nn2c(O)csc2=S)ccc1OCCOc1ccc(C(C)(C)C)cc1 [6209549]	12.4		
O=C1/C(=C\c2ccc(Sc3ccc(Cl)cc3)o2)SC(=S)N1c1ccc([N+](=O)[O-])cc1 [6789536]	5.85	5.6	4.81
O=C1/C(=C/c2ccc(-c3ccc(Cl)cc3Cl)o2)SC(=S)N1c1cccc(C(F)(F)F)c1 [8047577]	2.44	2.1	2.56
O=C1NC(=S)NC(=O)C1=Cc1ccc(-c2ccc(Cl)c(C(=O)O)c2)o1 [8048422]	4.17	6.7	3.89
O=C1NC(=S)NC(=O)C1=Cc1ccc(-c2cccc(C(=O)O)c2Cl)o1 [8056354]	6.29	6.8	6.51
